Patent US20220233469A1, “METHODS, COMPOSITIONS AND DEVICES FOR TREATING NEUROINFLAMMATORY CONDITIONS” (ALYRA BIOTECH PTY LTD, priority 2019, published 2022)
“Also recorded” adds a separate entry of the source.

Legend:
Format in all cases: in vivo, mouse
dorsal horn microglia = experiment: Activation of dorsal horn microglia (Iba1 immunofluorescence) after intrauterine LPS in mice; settings: for LPS-induced activation of spinal microglia (Iba1 staining, dorsal horn): intrauterine, given with LPS (100 ug/kg) once per estrus cycle over three cycles, Amitriptyline 28 ug/kg, TAK-242 36 ug/kg
Source text: (§1) We first recognised that neuroinflammatory conditions of the nervous system may be, at least in part, due to activation of the innate immune system within the uterus resulting in activation of glial cells in the dorsal horn of the spinal cord. To model this in mice, a study was undertaken administering LPS (lipopolysaccharide), a potent immune activator, to the uterus of mice once per estrus cycle over three cycles.
(§2) Studies were also undertaken to investigate whether a small dose of amitriptyline, an inhibitor of the pattern recognition receptors TLR, NOD, CLR, RIG-1 and MDA-5, administered with LPS within the uterus could prevent LPS-induced activation of spinal glial cells. To confirm that the amitriptyline was acting, at least in part, by blocking TLRs, an investigation was also conducted on mice given a small dose of pure TLR4 blocker-TAK-242—with LPS.
(§3) The Nonsurgical Embryo Transfer Device (Paratech, USA) was used to allow insertion of fluid into the uterus with brief, mild discomfort to the mouse, and no need for anaesthesia. Following three estrus cycles, glial activation in the dorsal horn of the spinal cord was measured using immunofluorescence. Activation of dorsal horn astrocytes was assessed using GFAP. Activation of dorsal horn microglia was assessed using Iba1. We compared the activation of spinal glia in mice with intrauterine administration of saline only, saline and LPS (100 ug/kg), saline LPS (100 ug/kg) and Amitriptyline (28 ug/kg), and saline LPS (100 ug/kg) and TAK-242 (36 ug/kg).
(§4) The spinal cord was assessed using immunohistochemistry techniques across levels T10, T11, T12, T13, L1, L2, L3, L4, L5, L6, S1 and S2 where T represents the thoracic segment of the spinal cord, L represents the lumbar segment of the spinal cord and S represents the sacral segment of the spinal cord. The regions of interest in the dorsal horn include Laminae I, II, III and IV. Changes in spinal glial reactivity are causally linked to all known models of neuroinflammatory medical conditions.

[1] = Facial Grimace Score after intrauterine LPS in mice; settings: mice, 24 hours following the final LPS stimulation
dorsal horn astrocytes = experiment: Activation of dorsal horn astrocytes (GFAP immunofluorescence) after intrauterine LPS in mice; settings: for LPS-induced activation of spinal astrocytes (GFAP staining, dorsal horn): intrauterine, given with LPS (100 ug/kg) once per estrus cycle over three cycles, Amitriptyline 28 ug/kg, TAK-242 36 ug/kg
Source text: as §1, §2, §3, §4

spinal glial cells = experiment: Spinal glial activation after intrauterine LPS in mice
Source text: as §1, §2, §3, §4

[2] = intrauterine LPS (100 ug/kg) compared with saline

CCOC(=O)C1=CCCC[C@H]1S(=O)(=O)Nc1ccc(F)cc1Cl [TAK-242]
LPS-induced activation of spinal microglia (Iba1 staining, dorsal horn) (dorsal horn microglia): prevented LPS-induced activation of spinal astrocytes and microglia; also recorded: reduced spinal activation of microglia below baseline levels
LPS-induced activation of spinal microglia (Iba1 staining, dorsal horn) (dorsal horn microglia; listed as TAK242): blocked the impact of intrauterine LPS at multiple levels of the spinal cord and reduced microglia reactivity to basal levels; also recorded: appears to reduce microglia reactivity to basal levels
Facial Grimace Score ([1]; intrauterine LPS with Amitriptyline or TAK242): reduced grimace scores non-significantly
LPS-induced activation of spinal astrocytes (GFAP staining, dorsal horn) (dorsal horn astrocytes): prevented LPS-induced activation of spinal astrocytes and microglia
LPS-induced activation of spinal astrocytes (GFAP staining, dorsal horn) (dorsal horn astrocytes; listed as TAK242): blocked the impact of intrauterine LPS at multiple levels of the spinal cord and reduced astrocytic reactivity to below basal levels; also recorded: blocks the impact of intrauterine LPS at multiple levels of the spinal cord and appears to reduce astrocytic reactivity to below basal levels
integrated density of GFAP staining (activated astrocytes within the dorsal horn) (dorsal horn astrocytes; level of T12, intrauterine LPS with Amitriptyline or TAK-242 vs LPS, p=0.0002): significantly reduce LPS effect
LPS-induced spinal glial activation (spinal glial cells; intrauterine co-administration with LPS (100 ug/kg), Amitriptyline 28 ug/kg, TAK-242 36 ug/kg): effect was also prevented; also recorded: block spinal glial activation following intrauterine administration of LPS

lipopolysaccharide [LPS]
activation of spinal microglia (Iba1 staining) (dorsal horn microglia; [2]): induced activation of spinal astrocytes and microglia; also recorded: localised increase in Iba1 microglial staining throughout select levels of the spinal cord; also recorded: induced activation of microglia with inconsistent effect across levels
Facial Grimace Score ([1]; intrauterine LPS vs saline): caused a significant increase in the presentation of Grimace behaviours in animals
activation of spinal astrocytes (GFAP staining) (dorsal horn astrocytes; [2]): induced activation of spinal astrocytes and microglia; also recorded: substantial increase in GFAP astrocyte staining throughout multiple levels of the spinal cord; also recorded: induced activation of astrocytes at multiple levels of the spinal levels compared with saline
activation of spinal glial cells (spinal glial cells; intra-uterine LPS): activate spinal glial cells, including astrocytes and microglia
